Patent US6737383B1, “Herbicidal oxadiazolidines” (priority 1999, dated 2004)

Tests used:
[1] = system: bedstraw; assay: Test B pre/postemergence bedstraw; assay type: in vivo, Galium aparine
Procedure, shortened: (§1)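 Response is a visual 0-to-10 score relative to untreated plants, where 0 means no effect and 10 means complete control, taken twelve to sixteen days after application. Treatments went onto soil at planting and onto foliage of 1- to 4-leaf plants, using a surfactant-containing non-phytotoxic solvent.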

[2] = system: blackgrass; assay: Test B pre/postemergence blackgrass; assay type: in vivo, Alopecurus myosuroides
Procedure, shortened: as §1

[3] = system: surinam grass; assay: Test B pre/postemergence surinam grass; assay type: in vivo, Brachiaria decumbens
Procedure, shortened: as §1

[4] = system: cocklebur; assay: Test B pre/postemergence cocklebur; assay type: in vivo, Xanthium strumarium
Procedure, shortened: as §1

[5] = system: corn; assay: Test B pre/postemergence corn; assay type: in vivo, Zea mays
Procedure, shortened: as §1

[6] = system: crabgrass; assay: Test B pre/postemergence crabgrass; assay type: in vivo, Digitaria sanguinalis
Procedure, shortened: as §1

[7] = system: giant foxtail; assay: Test B pre/postemergence giant foxtail; assay type: in vivo, Setaria faberii
Procedure, shortened: as §1

[8] = system: morningglory; assay: Test B pre/postemergence morningglory; assay type: in vivo, Ipomoea hederacea
Procedure, shortened: as §1

[9] = system: pigweed; assay: Test B pre/postemergence pigweed; assay type: in vivo, Amaranthus retroflexus
Procedure, shortened: as §1

[10] = system: rape; assay: Test B pre/postemergence rape; assay type: in vivo, Brassica napus
Procedure, shortened: as §1

[11] = system: soybean; assay: Test B pre/postemergence soybean; assay type: in vivo, Glycine max
Procedure, shortened: as §1

[12] = system: sugar beet; assay: Test B pre/postemergence sugar beet; assay type: in vivo, Beta vulgaris
Procedure, shortened: as §1

[13] = system: velvetleaf; assay: Test B pre/postemergence velvetleaf; assay type: in vivo, Abutilon theophrasti
Procedure, shortened: as §1

[14] = system: wheat; assay: Test B pre/postemergence wheat; assay type: in vivo, Triticum aestivum
Procedure, shortened: as §1

[15] = system: wild oat; assay: Test B pre/postemergence wild oat; assay type: in vivo, Avena fatua
Procedure, shortened: as §1

[16] = system: purple nutsedge; assay: Test B pre/postemergence purple nutsedge; assay type: in vivo, Cyperus rotundus
Procedure, shortened: as §1

[17] = Postemergence, Rate 250 g/ha, scale of 0 to 10, 0 is no effect, 10 is complete control
[18] = Preemergence, Rate 62 g/ha, scale of 0 to 10 where 0 is no effect and 10 is complete control
[19] = Preemergence, Rate 125 g/ha, scale of 0 to 10 where 0 is no effect and 10 is complete control
[20] = Preemergence, Rate 250 g/ha, scale 0 to 10 (0 no effect, 10 complete control)
[21] = Preemergence, Rate 500 g/ha, scale of 0 to 10 where 0 is no effect and 10 is complete control
[22] = Rate 500 g/ha, Postemergence, scale 0 to 10, 0 is no effect, 10 is complete control
[23] = Postemergence, Rate 62 g/ha, scale 0 to 10, 0 is no effect, 10 is complete control
[24] = Postemergence, Rate 125 g/ha, scale of 0 to 10 where 0 is no effect and 10 is complete control
[25] = Preemergence, Rate 250 g/ha, scale 0 (no effect) to 10 (complete control)
[26] = Rate 500 g/ha, Preemergence, scale 0 to 10 (0 no effect, 10 complete control)

## CC(C)N(C(=O)n1oc(=O)n(C(CCl)CCl)c1=O)c1ccc(F)cc1 [Compound 672]
[1]; [17]
  Bedstraw plant response rating: 4
[1]; [18]
  Bedstraw plant response rating: 0
[1]; [19]
  Plant response rating, Bedstraw: 0
[1]; [20]
  Plant response rating, Bedstraw: 0
[1]; [21]
  Plant response rating, Bedstraw: 0
[1]; [22]
  Bedstraw plant response rating: 6
[2]; [23]
  Plant response rating, Blackgrass: 0
[2]; [24]
  Blackgrass plant response rating: 2
[2]; [17]
  Blackgrass plant response rating: 6
[2]; [18]
  Blackgrass plant response rating: 1
[2]; [19]
  Plant response rating, Blackgrass: 3
[2]; [20]
  Plant response rating, Blackgrass: 8
[2]; [21]
  Plant response rating, Blackgrass: 8
[2]; [22]
  Blackgrass plant response rating: 6
[3]; [23]
  Plant response rating, B. signalgrass: 0
[3]; [24]
  Plant response rating, B. signalgrass: 3
[3]; [17]
  B. signalgrass plant response rating: 3
[3]; [18]
  B. signalgrass plant response rating: 2
[3]; [19]
  Plant response rating, B. signalgrass: 4
[3]; [20]
  Plant response rating, B. signalgrass: 6
[3]; [21]
  Plant response rating, B. signalgrass: 8
[3]; [22]
  B. signalgrass plant response rating: 4
[4]; [23]
  Plant response rating, Cocklebur: 0
[4]; [24]
  Cocklebur plant response rating: 1
[4]; [17]
  Cocklebur plant response rating: 2
[4]; [18]
  Cocklebur plant response rating: 0
[4]; [19]
  Plant response rating, Cocklebur: 0
[4]; [20]
  Plant response rating, Cocklebur: 0
[4]; [22]
  Cocklebur plant response rating: 7
[5]; [23]
  Plant response rating, Corn: 0
[5]; [24]
  Corn plant response rating: 0
[5]; [17]
  Corn plant response rating: 0
[5]; [18]
  Corn plant response rating: 0
[5]; [19]
  Plant response rating, Corn: 0
[5]; [20]
  Plant response rating, Corn: 0
[5]; [21]
  Plant response rating, Corn: 0
[5]; [22]
  Corn plant response rating: 0
[6]; [23]
  Plant response rating, Crabgrass: 5
[6]; [24]
  Crabgrass plant response rating: 6
[6]; [17]
  Crabgrass plant response rating: 7
[6]; [18]
  Crabgrass plant response rating: 8
[6]; [19]
  Plant response rating, Crabgrass: 10
[6]; [20]
  Plant response rating, Crabgrass: 10
[6]; [21]
  Plant response rating, Crabgrass: 10
[6]; [22]
  Crabgrass plant response rating: 9
[7]; [23]
  Plant response rating, Giant foxtail: 3
[7]; [24]
  Giant foxtail plant response rating: 5
[7]; [17]
  Giant foxtail plant response rating: 8
[7]; [18]
  Giant foxtail plant response rating: 9
[7]; [19]
  Plant response rating, Giant foxtail: 10
[7]; [20]
  Plant response rating, Giant foxtail: 10
[7]; [21]
  Plant response rating, Giant foxtail: 10
[7]; [22]
  Giant foxtail plant response rating: 9
[8]; [23]
  Plant response rating, Morningglory: 4
[8]; [24]
  Morningglory plant response rating: 8
[8]; [17]
  Morningglory plant response rating: 8
[8]; [18]
  Morningglory plant response rating: 0
[8]; [19]
  Plant response rating, Morningglory: 0
[8]; [20]
  Plant response rating, Morningglory: 0
[8]; [21]
  Plant response rating, Morningglory: 2
[9]; [23]
  Plant response rating, Redroot pigweed: 7
[9]; [18]
  Redroot pigweed plant response rating: 0
[9]; [19]
  Plant response rating, Redroot pigweed: 3
[9]; [20]
  Plant response rating, Redroot pigweed: 7
[9]; [21]
  Plant response rating, Redroot pigweed: 8
[9]; [22]
  Redroot pigweed plant response rating: 8
[10]; [23]
  Plant response rating, Rape: 0
[10]; [24]
  Rape plant response rating: 3
[10]; [18]
  Rape plant response rating: 0
[10]; [19]
  Plant response rating, Rape: 2
[10]; [20]
  Plant response rating, Rape: 7
[10]; [21]
  Plant response rating, Rape: 8
[10]; [22]
  Rape plant response rating: 3
[11]; [23]
  Plant response rating, Soybean: 2
[11]; [24]
  Soybean plant response rating: 2
[11]; [18]
  Soybean plant response rating: 0
[11]; [19]
  Plant response rating, Soybean: 0
[11]; [20]
  Plant response rating, Soybean: 0
[11]; [21]
  Plant response rating, Soybean: 0
[11]; [22]
  Soybean plant response rating: 5
[12]; [23]
  Plant response rating, Sugarbeets: 0
[12]; [24]
  Sugarbeets plant response rating: 0
[12]; [18]
  Sugarbeets plant response rating: 3
[12]; [19]
  Plant response rating, Sugarbeets: 4
[12]; [20]
  Plant response rating, Sugarbeets: 7
[12]; [21]
  Plant response rating, Sugarbeets: 8
[12]; [22]
  Sugarbeets plant response rating: 3
[13]; [23]
  Plant response rating, Velvetleaf: 6
[13]; [24]
  Velvetleaf plant response rating: 6
[13]; [18]
  Velvetleaf plant response rating: 0
[13]; [19]
  Plant response rating, Velvetleaf: 3
[13]; [20]
  Plant response rating, Velvetleaf: 3
[13]; [21]
  Plant response rating, Velvetleaf: 4
[13]; [22]
  Velvetleaf plant response rating: 7
[14]; [23]
  Plant response rating, Wheat: 0
[14]; [24]
  Wheat plant response rating: 0
[14]; [18]
  Wheat plant response rating: 0
[14]; [19]
  Plant response rating, Wheat: 0
[14]; [20]
  Plant response rating, Wheat: 0
[14]; [21]
  Plant response rating, Wheat: 0
[14]; [22]
  Wheat plant response rating: 0
[15]; [23]
  Plant response rating, Wild oats: 0
[15]; [24]
  Wild oats plant response rating: 0
[15]; [18]
  Wild oats plant response rating: 0
[15]; [19]
  Plant response rating, Wild oats: 4
[15]; [20]
  Plant response rating, Wild oats: 5
[15]; [21]
  Plant response rating, Wild oats: 7
[15]; [22]
  Wild oats plant response rating: 0
[16]; [23]
  Plant response rating, Nutsedge: 0
[16]; [24]
  Nutsedge plant response rating: 0
[16]; [18]
  Nutsedge plant response rating: 0
[16]; [19]
  Plant response rating, Nutsedge: 0
[16]; [20]
  Plant response rating, Nutsedge: 0
[16]; [21]
  Plant response rating, Nutsedge: 0
[16]; [22]
  Nutsedge plant response rating: 5

## CCn1ncc(Cn2c(=O)on(C(=O)N(c3ccc(F)cc3)C(C)C)c2=O)c1Cl [Compound 686]
[1]; [18]
  Bedstraw plant response rating: 0
[1]; [19]
  Plant response rating, Bedstraw: 0
[1]; [20]
  Plant response rating, Bedstraw: 0
[1]; [21]
  Plant response rating, Bedstraw: 0
[2]; [18]
  Blackgrass plant response rating: 4
[2]; [19]
  Plant response rating, Blackgrass: 7
[2]; [20]
  Plant response rating, Blackgrass: 8
[2]; [21]
  Plant response rating, Blackgrass: 9
[3]; [18]
  B. signalgrass plant response rating: 2
[3]; [19]
  Plant response rating, B. signalgrass: 5
[3]; [20]
  Plant response rating, B. signalgrass: 7
[3]; [21]
  Plant response rating, B. signalgrass: 9
[4]; [18]
  Cocklebur plant response rating: 0
[4]; [20]
  Plant response rating, Cocklebur: 0
[4]; [21]
  Plant response rating, Cocklebur: 0
[5]; [18]
  Corn plant response rating: 0
[5]; [19]
  Plant response rating, Corn: 0
[5]; [20]
  Plant response rating, Corn: 0
[6]; [18]
  Crabgrass plant response rating: 8
[6]; [19]
  Plant response rating, Crabgrass: 9
[6]; [20]
  Plant response rating, Crabgrass: 10
[7]; [18]
  Giant foxtail plant response rating: 9
[7]; [19]
  Plant response rating, Giant foxtail: 9
[8]; [18]
  Morningglory plant response rating: 0
[8]; [19]
  Plant response rating, Morningglory: 0
[9]; [18]
  Redroot pigweed plant response rating: 0
[9]; [19]
  Plant response rating, Redroot pigweed: 6
[10]; [18]
  Rape plant response rating: 0
[10]; [19]
  Plant response rating, Rape: 0
[11]; [18]
  Soybean plant response rating: 0
[11]; [19]
  Plant response rating, Soybean: 0
[12]; [18]
  Sugarbeets plant response rating: 0
[12]; [19]
  Plant response rating, Sugarbeets: 0
[13]; [18]
  Velvetleaf plant response rating: 0
[13]; [19]
  Plant response rating, Velvetleaf: 0
[14]; [18]
  Wheat plant response rating: 0
[14]; [19]
  Plant response rating, Wheat: 0
[15]; [18]
  Wild oats plant response rating: 0
[15]; [19]
  Plant response rating, Wild oats: 1
[16]; [18]
  Nutsedge plant response rating: 0
[16]; [19]
  Plant response rating, Nutsedge: 0

## CC(C)N(C(=O)n1oc(=O)n(C(C)C2CCC2)c1=O)c1ccccc1 (stereo not drawn) [Compound 717]
[1]; [18]
  Bedstraw plant response rating: 0
[1]; [25]
  Bedstraw plant response rating: 0
[1]; [26]
  Bedstraw plant response rating: 0
[2]; [18]
  Blackgrass plant response rating: 9
[2]; [25]
  Blackgrass plant response rating: 10
[2]; [26]
  Blackgrass plant response rating: 10
[3]; [18]
  B. signalgrass plant response rating: 4
[3]; [25]
  B. signalgrass plant response rating: 7
[3]; [26]
  B. signalgrass plant response rating: 7
[4]; [18]
  Cocklebur plant response rating: 0
[4]; [25]
  Cocklebur plant response rating: 0
[4]; [26]
  Cocklebur plant response rating: 0
[5]; [18]
  Corn plant response rating: 0
[5]; [25]
  Corn plant response rating: 3
[5]; [26]
  Corn plant response rating: 9
[6]; [18]
  Crabgrass plant response rating: 10
[6]; [25]
  Crabgrass plant response rating: 10
[6]; [26]
  Crabgrass plant response rating: 10
[7]; [18]
  Giant foxtail plant response rating: 10
[7]; [25]
  Giant foxtail plant response rating: 10
[7]; [26]
  Giant foxtail plant response rating: 10
[8]; [18]
  Morningglory plant response rating: 0
[8]; [25]
  Morningglory plant response rating: 0
[8]; [26]
  Morningglory plant response rating: 0
[9]; [18]
  Redroot pigweed plant response rating: 6
[9]; [25]
  Redroot pigweed plant response rating: 8
[9]; [26]
  Redroot pigweed plant response rating: 8
[10]; [18]
  Rape plant response rating: 0
[10]; [25]
  Rape plant response rating: 0
[10]; [26]
  Rape plant response rating: 4
[11]; [18]
  Soybean plant response rating: 0
[11]; [25]
  Soybean plant response rating: 0
[11]; [26]
  Soybean plant response rating: 0
[12]; [18]
  Sugarbeets plant response rating: 0
[12]; [25]
  Sugarbeets plant response rating: 2
[12]; [26]
  Sugarbeets plant response rating: 3
[13]; [18]
  Velvetleaf plant response rating: 0
[13]; [25]
  Velvetleaf plant response rating: 0
[13]; [26]
  Velvetleaf plant response rating: 0
[14]; [18]
  Wheat plant response rating: 0
[14]; [25]
  Wheat plant response rating: 0
[14]; [26]
  Wheat plant response rating: 0
[15]; [18]
  Wild oats plant response rating: 9
[15]; [25]
  Wild oats plant response rating: 9
[15]; [26]
  Wild oats plant response rating: 10
[16]; [18]
  Nutsedge plant response rating: 0
[16]; [25]
  Nutsedge plant response rating: 0
[16]; [26]
  Nutsedge plant response rating: 0
